The test relates to B6C3F1 mice, Lewis lung carcinoma iv, survival T/C. As to the kind of experiment: NCI In Vivo Anticancer Drug Screen. Data for tumor model Lewis Lung Carcinoma (intravenous) in B6C3F1 mice. The following applies: endpoint: median survival time, schedule: Q01DX009 (ip), higher = longer survival. Here is the method: The antitumor activity of compounds was measured in mice bearing transplantable tumors. Survival or tumor size were measured and the results are expressed as the measurement made in the treated group (T) divided by the measurement made in the vehicle treated control group (C). The tumor model used in this assay is Lewis Lung Carcinoma (intravenous) in B6C3F1 mice

[1] abbreviates: dose: 12.5 mg/kg/injection, vehicle: saline.
The mark [2] stands for this setting: dose: 25.0 mg/kg/injection, vehicle: saline.
Where [3] appears, read: dose: 50.0 mg/kg/injection, vehicle: saline.
[4] abbreviates: dose: 100.0 mg/kg/injection, vehicle: saline.
[5] abbreviates: dose: 200.0 mg/kg/injection, vehicle: saline.
Setting [6] is: dose: 400.0 mg/kg/injection, vehicle: saline.

Structures are written as SMILES. Values joined by “and” are separate entries in the source; they are usually repeats but may differ in a detail not shown here. Equal values may be shown once. Inconclusive results and toxic doses are left out.

With `C[C@H](N)C(=O)N[C@@H]1[C@H]2C(=C(O)C[C@@H](O)[C@@H]2O)C(=O)O[C@@H]1C`, the T/C was 102 % of control and 106 % of control (dose: 75.0 mg/kg/injection, vehicle: saline); 105 % of control and 106 % of control (dose: 150.0 mg/kg/injection, vehicle: saline); 107 % of control and 110 % of control (dose: 300.0 mg/kg/injection, vehicle: saline); 114 % of control and 120 % of control (dose: 600.0 mg/kg/injection, vehicle: saline); 117 % of control (dose: 1200.0 mg/kg/injection, vehicle: saline).
As for `C[Si](C)(C)O/C=C1/CCOC1=O`, the T/C reads like this: under setting [1], 93 % of control; under setting [2], 101 % of control; under setting [3], 94 % of control; under setting [4], 97 % of control; under setting [5], 91 % of control; under setting [6], 94 % of control.
For the molecule `COc1ccc(/C=C/C(=O)c2cc(C(=O)O)c(OC)cc2OC)cc1OC`, the T/C is, setting by setting: (dose: 12.5 mg/kg/injection, vehicle: suspension in saline) 98 % of control; (dose: 25.0 mg/kg/injection, vehicle: suspension in saline) 104 % of control; (dose: 50.0 mg/kg/injection, vehicle: suspension in saline) 98 % of control; (dose: 100.0 mg/kg/injection, vehicle: suspension in saline) 90 % of control; (dose: 200.0 mg/kg/injection, vehicle: suspension in saline) 95 % of control.
With `CC(=O)OC1=NC(C)c2c1cc(OC(C)=O)[nH]c2=O` (stereo not given), the T/C was 102 % of control (dose: 12.5 mg/kg/injection, vehicle: Klucel (hydroxypropylcellulose) (HPC)); 98 % of control (dose: 25.0 mg/kg/injection, vehicle: Klucel (hydroxypropylcellulose) (HPC)); 95 % of control (dose: 50.0 mg/kg/injection, vehicle: Klucel (hydroxypropylcellulose) (HPC)).
With `CC(=O)OCC1OC([S-])C(OC(C)=O)C(OC(C)=O)C1OC(C)=O.CC[PH+](CC)CC.CC[PH+](CC)CC.[Au].[Au]` (stereo not given), the T/C was 91 % of control and 104 % of control (dose: 0.62 mg/kg/injection, vehicle: Klucel (hydroxypropylcellulose) (HPC)); 98 % of control and 106 % of control (dose: 1.25 mg/kg/injection, vehicle: Klucel (hydroxypropylcellulose) (HPC)); 100 % of control and 109 % of control (dose: 2.5 mg/kg/injection, vehicle: Klucel (hydroxypropylcellulose) (HPC)); 101 % of control (dose: 5.0 mg/kg/injection, vehicle: Klucel (hydroxypropylcellulose) (HPC)); 102 % of control and 104 % of control (dose: 10.0 mg/kg/injection, vehicle: Klucel (hydroxypropylcellulose) (HPC)).
For the molecule `COc1cc2c(c(OC)c1OC)-c1ccc(OC)c(=O)cc1[C@@H](NC(=O)CCl)CC2`, the T/C is, setting by setting: (dose: 0.03 mg/kg/injection, vehicle: saline with Tween-80) 114 % of control; (dose: 0.06 mg/kg/injection, vehicle: saline with Tween-80) 102 % of control; (dose: 0.12 mg/kg/injection, vehicle: saline with Tween-80) 114 % of control; (dose: 0.25 mg/kg/injection, vehicle: saline with Tween-80) 106 % of control.
On to `O=C(O)CCCCCCCC(=O)O`, for which the T/C by setting is: (dose: 12.5 mg/kg/injection, vehicle: distilled water + Tween-80) 100 % of control; (dose: 25.0 mg/kg/injection, vehicle: distilled water + Tween-80) 99 % of control; (dose: 50.0 mg/kg/injection, vehicle: distilled water + Tween-80) 100 % of control; (dose: 100.0 mg/kg/injection, vehicle: distilled water + Tween-80) 98 % of control.
In the case of `CCOC(OCC)C(=O)OCC(=O)[C@]1(O)Cc2c(O)c3c(c(O)c2[C@@H](OC2CC(N)C(O)C(C)O2)C1)C(=O)c1c(OC)cccc1C3=O` (stereo not given in full), the T/C by setting is: (dose: 0.13 mg/kg/injection, vehicle: water) 113 % of control; (dose: 0.5 mg/kg/injection, vehicle: water) 116 % of control; (dose: 1.0 mg/kg/injection, vehicle: water) 112 % of control; (dose: 2.0 mg/kg/injection, vehicle: water) 120 % of control.
With `COC(=O)C(N)Cc1ccc(O)c(O)c1` (stereo not given), the T/C runs as follows: under setting [1], 107 % of control; under setting [2], 103 % of control; under setting [3], 101 % of control; under setting [4], 109 % of control; under setting [5], 92 % of control; under setting [6], 95 % of control. Also, the T/C (dose: 800.0 mg/kg/injection, vehicle: saline) is 95 % of control.
For the molecule `CN(C)CCN1C(=O)c2cccc3cc(N)cc(c23)C1=O`, the T/C by setting is: (dose: 1.0 mg/kg/injection, vehicle: saline with Tween-80) 115 % of control; (dose: 2.0 mg/kg/injection, vehicle: saline with Tween-80) 106 % of control; (dose: 4.0 mg/kg/injection, vehicle: saline with Tween-80) 111 % of control; (dose: 8.0 mg/kg/injection, vehicle: saline with Tween-80) 119 % of control.
With `COc1cccc2c1C(=O)c1c(O)c3c(c(O)c1C2=O)CC(O)(C(=O)CO)CC3OC1CC(N)C(O)C(C)O1` (stereo not given), the T/C by setting is: (dose: 1.56 mg/kg/injection, vehicle: saline) 110 % of control; (dose: 1.87 mg/kg/injection, vehicle: water) 107 % of control; (dose: 3.12 mg/kg/injection, vehicle: saline) 109 % of control; (dose: 3.75 mg/kg/injection, vehicle: water) 107 % of control; (dose: 4.5 mg/kg/injection, vehicle: water) 101 % of control; (dose: 6.25 mg/kg/injection, vehicle: saline) 123 % of control. For the same molecule, the T/C was 109 % of control (dose: 7.5 mg/kg/injection, vehicle: water); 112 % of control (dose: 9.0 mg/kg/injection, vehicle: water); 119 % of control (dose: 15.0 mg/kg/injection, vehicle: water); 123 % of control (dose: 18.0 mg/kg/injection, vehicle: water); 119 % of control under setting [2]; 90 % of control under setting [3].
With `NC(=O)c1c[se]c(C2OC(CO)C(O)C2O)n1` (stereo not given), the T/C (dose: 0.75 mg/kg/injection, vehicle: water) is 107 % of control; the T/C (dose: 1.5 mg/kg/injection, vehicle: water) was 110 % of control; the T/C (dose: 3.0 mg/kg/injection, vehicle: water) was 152 % of control and 153 % of control; the T/C (dose: 6.0 mg/kg/injection, vehicle: water) was 297 % of control; the T/C (dose: 12.0 mg/kg/injection, vehicle: water) is 297 % of control and 355 % of control; the T/C (dose: 13.0 mg/kg/injection, vehicle: water) is 315 % of control. Besides, the T/C (dose: 24.0 mg/kg/injection, vehicle: water) is 297 % of control; the T/C (dose: 25.0 mg/kg/injection, vehicle: water) was 355 % of control; the T/C (dose: 33.0 mg/kg/injection, vehicle: water) was 94 % of control; the T/C (dose: 75.0 mg/kg/injection, vehicle: water) is 315 % of control; the T/C (dose: 100.0 mg/kg/injection, vehicle: water) was 120 % of control.

The values are drawn from PubChem BioAssay AID276 (DTP/NCI, 2004).
